PubChem BioAssay (NCI)
“And” between values parts separate entries of the source, which are not always exact repeats. Identical values can stand only once.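 Interpolation was linear, between the two tested concentrations surrounding the appropriate level; five concentrations were tested over 48 hours in 96-well plates. GI50 is the concentration that inhibits growth by half. TGI marks complete inhibition of growth.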

Columns and labels:
Assay in all cases: NCI anticancer screen, dose series, 48 h
NCI/ADR-RES ovarian = test system: NCI/ADR-RES ovarian
RXF 393 renal = test system: RXF 393 renal
786-0 renal = test system: 786-0 renal
BT-549 breast = test system: BT-549 breast
DU-145 prostate = test system: DU-145 prostate
MALME-3M melanoma = test system: MALME-3M melanoma
EKVX NSCLC = test system: EKVX NSCLC
ACHN renal = test system: ACHN renal
RPMI-8226 leukemia = test system: RPMI-8226 leukemia
KM12 colon = test system: KM12 colon

| Compound | GI50 (NCI/ADR-RES ovarian) | TGI (NCI/ADR-RES ovarian) | GI50 (RXF 393 renal) | TGI (RXF 393 renal) | GI50 (786-0 renal) | TGI (786-0 renal) | GI50 (BT-549 breast) | TGI (BT-549 breast) | GI50 (DU-145 prostate) | TGI (DU-145 prostate) | GI50 (MALME-3M melanoma) | TGI (MALME-3M melanoma) | GI50 (EKVX NSCLC) | TGI (EKVX NSCLC) | GI50 (ACHN renal) | TGI (ACHN renal) | GI50 (RPMI-8226 leukemia) | TGI (RPMI-8226 leukemia) | GI50 (KM12 colon) | TGI (KM12 colon) |
| --- | --- | --- | --- | --- | --- | --- | --- | --- | --- | --- | --- | --- | --- | --- | --- | --- | --- | --- | --- | --- |
| CCOC(=O)c1cnc(SCc2ccc(Cl)c(Cl)c2)nc1N1CC1 | 2.91 µM | 8.72 µM | 4.04 µM | 16.2 µM | 3.24 µM | 14.1 µM | 2.88 µM | 13.6 µM | 2.98 µM | 9.73 µM | 3.33 µM | 14.8 µM | 3.8 µM | 18.6 µM | 3.12 µM | 13.2 µM | 2.54 µM | 9.64 µM | 3.13 µM | 12.5 µM |
| CCCCCCCCCCCCc1ccc(C(=O)/C=C/C(=O)O)cc1 | 7.78 µM | 24.5 µM | 1.76 µM | 3.34 µM | 2.03 µM | 4.05 µM | 1.91 µM | 5.33 µM | 8.15 µM | 20.9 µM | 1.82 µM | 3.6 µM | 4.09 µM | 17.1 µM | 1.73 µM | 3.15 µM | 2.11 µM | 6.75 µM | 11.7 µM | 25.9 µM |
| COc1cc(CCc2cc(NC(=O)c3ccc(N4C[C@@H](C)N[C@@H](C)C4)cc3)n[nH]2)cc(OC)c1 | > 10 µM and 17.1 µM | > 10 µM and 36.8 µM |  | 7.97 µM and 9.67 µM | > 10 µM and 6.16 µM | > 10 µM and 20.4 µM | 5.58 µM and 1.08 µM | > 10 µM and 17.2 µM | 7.62 µM and 6.09 µM | > 10 µM and 18.5 µM | 8.58 µM and 5.25 µM | > 10 µM and 19.9 µM | > 10 µM | > 10 µM | 9.45 µM and 4.41 µM | > 10 µM and 15.3 µM | 4.82 µM and 4.65 µM | > 10 µM and 19.6 µM | 0.0759 µM and 0.107 µM | > 10 µM and 11 µM |
| O=[N+]([O-])c1ccc(Sc2ncccn2)c([N+](=O)[O-])c1 | 6.55 µM | 20.1 µM | 0.0489 µM | 3.23 µM | 4.59 µM | 16.1 µM | 1.27 µM | 4.19 µM | 3.71 µM | 12.7 µM | 1.75 µM | 4.72 µM | 3.96 µM | 18.7 µM | 3.41 µM | 11.1 µM | 1.89 µM | 5.4 µM | 4.36 µM | 15.9 µM |
| COc1cc(C(=O)O)c([N+](=O)[O-])c(OC)c1OC |  | > 100 µM |  | > 100 µM |  | > 100 µM |  | > 100 µM |  | > 100 µM |  | > 100 µM |  | > 100 µM |  | > 100 µM |  | > 100 µM |  | > 100 µM |
| O=[N+]([O-])c1ccc(N/N=C\c2cc(Cl)ccc2O)nc1 | 0.388 µM | 8.32 µM | 5.66 µM | 38.8 µM | 2.18 µM | 11.2 µM | 3.23 µM | 14.9 µM | 1.22 µM | 13.1 µM | 2.68 µM | 20.5 µM | 8.05 µM | > 100 µM | 0.696 µM | 39.4 µM | 0.987 µM | > 100 µM | 1.06 µM | > 100 µM |
| NC(N)=NC(CC(=O)O)c1ccccc1 (centres undefined) |  | > 100 µM |  | > 100 µM |  | > 100 µM |  | > 100 µM |  | > 100 µM |  | > 100 µM |  | > 100 µM |  | > 100 µM |  | > 100 µM |  | > 100 µM |
| C[C@H]1[C@H](OC(=O)CCC(=O)O)O[C@@H]2O[C@]3(C)CC[C@H]4[C@H](C)CC[C@@H]1[C@@]24OO3 | 0.482 µM | 6.15 µM | 0.953 µM | 33 µM | 1.12 µM | 25.8 µM | 0.292 µM | 4.55 µM | 6.48 µM | 20.1 µM | 0.878 µM | 31.6 µM | 0.443 µM | 18.3 µM | 0.921 µM | 14.4 µM | 0.0948 µM | 13 µM | 0.168 µM | 12 µM |
